Test results from patent publication US10786503B2, “Treatment of adipocytes” (Melior Pharmaceuticals I, Inc., priority 2017, dated 2020).
Values belong to the molecule of their own block, whether it stands above or below them.

Columns and labels:
human adipocytes = experiment: Beige adipocyte gene expression by RT-PCR in primary cultured human adipocytes; assay type: cell-based
Protocol: (§1) Human adipocyte precursor cells isolated from subcutaneous abdominal fat were purchased from LaCell, LLC, New Orleans, La. Cells were seeded and grown to confluence in DMEM/F12 with 10% heat inactivated FBS. Differentiation to mature adipocytes was induced in medium composed of 70% DMEM and 30% DMEMF12 supplemented with 3% FBS, 1 μM dexamethasone (Sigma D4902), […] biotin (Sigma B4639), 100 nM insulin (Sigma 15500), 20 μM pantothenate (Sigma P5155), 5 μM rosiglitazone (AK Scientific F325) and […] (Sigma 15879) for four days. Cells were maintained in medium composed of 70% DMEM and 30% DMEMF12 supplemented with 3% FBS, 1 μM dexamethasone, 33 μM biotin, 100 nM insulin, and 20 NM pantothenate for seven days before experimental treatment.
A solution of 10 mM Compound 102 was prepared in DMSO and diluted to 60 μM or 30 μM in maintenance medium without dexamethasone for cell treatment. […]
(§2) Total RNA was isolated from adipocyte cultures grown in 12-well plates using Trizol and Qiagen RNAeasy kits. Reverse transcriptase and PCR were conducted in one reaction with the reverse PCR primer priming cDNA synthesis using SuperScript® III Platinum® One-Step Quantitative RT-PCR System with Rox from Invitrogen (11745). Predesigned Taqman primer-probe sets were purchased from Applied Biosystems for the following human transcript sequences: UCP1 (Hs249211), PPARGC1α (HS527078), PPARU (Hs103110), CPT1b (Hs439777), and GLUT4/SLC2A4 (Hs380691). Aplicons were designed to span an intron-exon junction to avoid amplification of genomic sequences. Each sample RT-PCR assay was conducted in duplicate.

[1] = Phase 2a clinical trial of Compound 102 (fasting plasma glucose, body weight); assay type: in vivo, human
Protocol: This Phase 2a clinical trial was conducted in the U.S. (103 subjects) and Korea (27 subjects). […] Subjects were treated with one of four active doses (100 mg once-daily (qd), 100 mg twice-daily (bid), 200 mg qd, or 200 mg bid) of Compound 102 or placebo for 4 weeks after having 3 weeks of placebo run-in. […] Body weights, as secondary endpoints, were measured at Day 1 and Day 29 and at the follow-up visit 1 week after treatment stopped, at Day 35. […] The effect was most pronounced in the U.S. subjects and in the 100 qd dose group.

[2] = test system: primary cultured human adipocytes; experiment: GLUT4 and UCP1 protein expression in primary cultured human adipocytes; assay type: cell-based; conditions: 7-day treatment period
Protocol: as §1
A solution of 10 mM Compound 102 was prepared in DMSO and diluted to 60 μM or 30 μM in maintenance medium without dexamethasone for cell treatment. In some experiments, cells were treated with 20 μM menthol (Sigma M2772).

[3] = test system: UCP-1 adipose tissue protein; experiment: UCP-1 adipose tissue protein in db/db mice (Western blot densitometry); assay type: in vivo; conditions: 100 mg/kg qd for 3 weeks, tissue 4 hours after last dose, FIG. 10
Protocol: Adipose tissue was collected 4 hours after the last dose of Compound 102.

[4] = test system: Compound 102-induced UCP1 expression; experiment: Effect of inhibitors on Compound 102-induced UCP1 expression; assay type: cell-based, human; conditions: over 4 days; LY294002 20 NM, H89 20 μM; FIG. 9
Protocol: as §1
as §2, with “Each sample RT-PCR assay was conducted in duplicate.” left out

[5] = Rodent oral glucose tolerance test; assay type: in vivo; conditions: FIG. 13
Excerpt: In contrast, menthol potentiates the insulin sensitizing action of Compound 102 in a rodent oral glucose tolerance test.

[6] = human adipocytes, day 4, FIG. 3

- expression of TRPM8 menthol receptor mRNA (human adipocytes; FIG. 8): induced
- expression of Adipose Triglyceride Lipase (ATGL) (human adipocytes; [6]): significant increases
- expression of Carnitine palmitoyltransferase-Ib (CPT-1b) (human adipocytes; [6]): significant increases
- expression of Transient Potential Melastatin 8 Receptor (TRPM8R) (human adipocytes; [6]): significant increases
Compound: Cc1cccc(Oc2c[nH]c(=O)[nH]c2=O)c1 [Compound 102, 5-(m-tolyloxy)pyrimidine-2,4(1H,3H)-dione]
- GLUT4 mRNA (human adipocytes; 7-day treatment period, FIG. 4): continued to increase
- UCP1 mRNA (human adipocytes; 7-day treatment period, FIG. 4): continued to increase
- expression of the UCP1 activator PGC-1β (human adipocytes; FIG. 7): induced
- expression of the UCP1 activator PPARα (human adipocytes; FIG. 7): induced
- expression of GLUT4 (human adipocytes; [6]): significant increases
- expression of UCP-1 (human adipocytes; [6]): significant increases
- body weight loss over the 4-week treatment period ([1]; Day 1 to Day 29, secondary endpoint): statistically significant improvements in body weight loss
- body weight 1 week after treatment (Day 35) compared to Day 29 ([1]; follow-up 1 week after treatment stopped, FIG. 2): all groups except for the 200 mg bid group showed continued loss
- fasting plasma glucose (FPG) ([1]; subjects with HbA1c 7-10%, 100 mg qd, 100 mg bid, 200 mg qd or 200 mg bid for 4 weeks, FIG. 1): progressive reduction
- expression of GLUT4 protein ([2]; FIG. 5): continued to exist
- expression of UCP1 protein ([2]; FIG. 6): continued to exist
- levels of UCP-1 adipose tissue protein [3]: Increased levels

Compound: O=S(=O)(NCCNC/C=C/c1ccc(Br)cc1)c1cccc2cnccc12 [Compound H89]
- Compound 102-induced UCP1 mRNA in presence of inhibitor [4]: reduced UCP1 mRNA to levels of unstimulated controls or lower

Compound: COc1cc(CN(CCN)C(=O)OC(C)c2ccccc2)ccc1OCc1ccccc1 (centres unmarked) [PBMC]
- Compound 102-induced UCP1 mRNA in presence of inhibitor [4]: reduced UCP1 mRNA to levels of unstimulated controls or lower

Compound: CC1CCC(C(C)C)C(O)C1 (centres unmarked) [menthol, reference compound]
- insulin sensitization or glycemic control [5]: does effect insulin sensitization or glycemic control
- UCP1 expression (human adipocytes; 7 day treatment, 30 μM menthol, 30 NM Compound 102, versus Compound 102 alone, FIG. 12 panel a): did not induce expression
